From ChEMBL document CHEMBL1201862, “PubChem BioAssay data set” (2004)
Calls of active or inactive are those of the source.

How the values were obtained:
[1] = inhibitors of SNCA 5'UTR-driven reporter translation, confirmation, H4 neuroglioma cells, luminescence (AID 1988); format: functional, cell-based
[2] = control 3'UTR Renilla luciferase suppression, dose response, counter-screen for Shn3 inhibitor project, cell-based, Clone20-Shn3RL, cherry-picked (AID 624133); format: functional
INS1 = test: beta cell apoptosis inhibitors, cytokine rescue, dose response, luminescence, retest (AID 449756); format: functional, cell-based; conditions: Rattus norvegicus;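 also: cell death triggered by IL-1 beta plus TNF-alpha plus IFN-gamma mixture; protective hits raise ATP signal compared with cytokine alone wells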
[3] = inhibitors of firefly luciferase expression or activity, dose response, H4 neuroglioma cells, luminescence (AID 1990); format: functional, cell-based
Cytochrome P450 2C9 = Cytochrome P450 2C9 (Homo sapiens, UniProt P11712)
[4] = growth suppression of beta-catenin-knockout colon cells, dose response, cell-based, HCT116, human colon tumor (AID 1045); format: functional;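 also: HCT116 colon tumor cells with beta catenin knocked out; cells exposed to compound for 60 hours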
[5] = Luminescence Cell-Based Dose Response HTS to Identify Inhibitors of 5'UTR Stem-Loop Driven Prion Protein mRNA Translation in H4 Neuroglioblastoma Cells. [Related pubchem assays: 1827 (Project Summary), 1813 (Primary HTS)]; format: functional
[6] = target: Beta-2 adrenergic receptor (Homo sapiens, UniProt P07550); test: beta2AR agonists driving receptor internalization, dose response, cell-based, FAP fluorogen, flow cytometry, cherry pick 1 (AID 588763); format: functional
[7] = Shn3 3'UTR reporter inhibitors, dose response, cell-based, Clone20 osteoblasts, firefly luciferase, cherry-picked (AID 624132); format: functional;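 also: firefly luciferase luminescence from reporter carrying the Shn3 3'UTR in osteoblasts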
[8] = HepG2 cell cytotoxicity, dose response, cytotoxicity control for Shn3 inhibitor project, CellTiter-Glo, cherry-picked (AID 624134); format: functional, cell-based
[9] = growth suppression of PTEN-null colon cells, dose response, cell-based, HCT116 PTEN knockout (AID 1047); format: functional;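 also: HCT116 colon tumor cells with PTEN knocked out; cells exposed to compound for 60 hours before readout; potency for loss of cell viability measured by luminescence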
[10] = target: T1, Ubiquitin-conjugating enzyme E2 N (Homo sapiens, UniProt P61088); format: functional;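 also: Dose-response confirmation in a TR-FRET assay detecting UBC13-driven polyubiquitin chain formation, inhibition measured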
T1 sequence (P61088 whole entry): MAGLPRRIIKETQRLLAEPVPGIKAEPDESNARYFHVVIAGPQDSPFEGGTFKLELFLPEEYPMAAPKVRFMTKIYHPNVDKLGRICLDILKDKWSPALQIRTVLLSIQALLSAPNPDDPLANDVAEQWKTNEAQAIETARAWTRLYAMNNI

Cytochrome P450 2C19 = Cytochrome P450 2C19 (Homo sapiens, UniProt P33261); test: Cytochrome panel assay with activity outcomes. Panel member name: p450-cyp2c19 Compounds with AC50 equal or less than 10 uM are considered active; format: functional; conditions: read-out: AC50
[11] = target: Potassium voltage-gated channel subfamily KQT member 2 (Rattus norvegicus, UniProt O88943); test: Mode of action assay-Dose response assay for compounds that activate KCNQ2 potassium channels on automated patch clamp. [Related pubchem assays (depositor defined):AID2239, AID2258, AID2287, AID493113]; format: functional
[12] = target: Potassium voltage-gated channel subfamily KQT member 4 (Homo sapiens, UniProt P56696); test: human KCNQ4 channel current potentiation, dose response, selectivity assay for KCNQ2 activator project, automated patch clamp, CHO cells (AID 493043); format: functional, cell-based
[13] = target: Potassium voltage-gated channel subfamily KQT member 2/member 3 (Rattus norvegicus, UniProt O88943+O88944); test: Mode of action assay-Dose response assay for KCNQ2 activators in the KCNQ2/KCNQ3 co-expressing cells on automated patch clamp. [Related pubchem assays (depositor defined):AID2239, AID2258, AID2287]; format: functional
HEK293 [14] = test: cytotoxicity in HEK293T NF-kB-Luc cells, SAR follow-up, cytotoxicity control for NF-kB activator project, cell-based, resazurin fluorescence (AID 493251); format: functional; conditions: Homo sapiens
[15] = system: Streptococcus sp. 'group A'; test: growth inhibition of control SK(-) GAS strain, dose response, counter-screen for streptokinase expression inhibitor project, luminescence, kanamycin, BacTiterGlo, confirmation (AID 1900); format: functional, organism-based
[16] = A Cell Based Secondary Assay To Explore Cytotoxicity of Compounds that Sensitize Mycobacterium Tuberculosis to Beta-Lactam Antibiotics.; format: functional
Jurkat = test: SAR Analysis of small molecule inhibitors of T-cell specific antigen receptor-induced NF-kB activation in a Jurkat cell line using a luminescence assay - Set 2. [Related pubchem assays (depositor defined):AID435003, AID435012, AID465]; format: functional, cell-based; conditions: Homo sapiens
Streptococcus = test: Group A Streptococcus viability loss, dose response, counter-screen for streptokinase expression inhibitor project, luminescence, BacTiterGlo (AID 1915); format: functional, organism-based;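 also: potency for reduction of bacterial viability or growth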
Streptokinase A = target: T2, Streptokinase A (Streptococcus pyogenes serotype M1, UniProt P10520); test: S. pyogenes streptokinase expression inhibitors, potency, dose response, plasminogen activation absorbance, OD405 (AID 1914); format: functional, Streptococcus pyogenes M1 GAS;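 also: secreted streptokinase activity via plasminogen activation per viability signal from cell pellet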
T2 sequence (P10520 whole entry): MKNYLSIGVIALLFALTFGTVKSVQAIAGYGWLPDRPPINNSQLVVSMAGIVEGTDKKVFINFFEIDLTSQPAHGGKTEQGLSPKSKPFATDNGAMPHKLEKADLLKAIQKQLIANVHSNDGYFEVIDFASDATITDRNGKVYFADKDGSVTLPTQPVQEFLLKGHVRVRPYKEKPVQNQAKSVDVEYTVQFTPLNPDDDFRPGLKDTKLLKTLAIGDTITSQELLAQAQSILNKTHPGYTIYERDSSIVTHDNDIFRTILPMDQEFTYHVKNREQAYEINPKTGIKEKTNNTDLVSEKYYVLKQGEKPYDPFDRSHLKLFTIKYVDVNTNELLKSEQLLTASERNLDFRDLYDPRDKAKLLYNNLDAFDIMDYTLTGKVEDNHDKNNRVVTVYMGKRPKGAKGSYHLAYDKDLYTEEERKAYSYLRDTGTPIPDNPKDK

[17] = HEp-2 cell cytotoxicity, dose response, cytotoxicity control for RSV inhibitor project, HTS (AID 2410); format: functional; conditions: human respiratory syncytial virus
HEK293 [18] = test: SAR Analysis of small molecule inhibitors of T-cell specific antigen receptor-induced NF-kB activation in a HEK-293T cell line using a luminescence assay - Set 2. [Related pubchem assays (depositor defined):AID435003, AID435012, AID489026]; format: functional, cell-based; conditions: Homo sapiens
DNA topoisomerase = DNA topoisomerase (Yersinia pestis, UniProt A0A2S9PM60); test: Y. pestis Topo-I inhibitors, cleavage product readout, dose response, biochemical, cherry-pick (AID 588525)
DNA topoisomerase, sequence (A0A2S9PM60 whole entry): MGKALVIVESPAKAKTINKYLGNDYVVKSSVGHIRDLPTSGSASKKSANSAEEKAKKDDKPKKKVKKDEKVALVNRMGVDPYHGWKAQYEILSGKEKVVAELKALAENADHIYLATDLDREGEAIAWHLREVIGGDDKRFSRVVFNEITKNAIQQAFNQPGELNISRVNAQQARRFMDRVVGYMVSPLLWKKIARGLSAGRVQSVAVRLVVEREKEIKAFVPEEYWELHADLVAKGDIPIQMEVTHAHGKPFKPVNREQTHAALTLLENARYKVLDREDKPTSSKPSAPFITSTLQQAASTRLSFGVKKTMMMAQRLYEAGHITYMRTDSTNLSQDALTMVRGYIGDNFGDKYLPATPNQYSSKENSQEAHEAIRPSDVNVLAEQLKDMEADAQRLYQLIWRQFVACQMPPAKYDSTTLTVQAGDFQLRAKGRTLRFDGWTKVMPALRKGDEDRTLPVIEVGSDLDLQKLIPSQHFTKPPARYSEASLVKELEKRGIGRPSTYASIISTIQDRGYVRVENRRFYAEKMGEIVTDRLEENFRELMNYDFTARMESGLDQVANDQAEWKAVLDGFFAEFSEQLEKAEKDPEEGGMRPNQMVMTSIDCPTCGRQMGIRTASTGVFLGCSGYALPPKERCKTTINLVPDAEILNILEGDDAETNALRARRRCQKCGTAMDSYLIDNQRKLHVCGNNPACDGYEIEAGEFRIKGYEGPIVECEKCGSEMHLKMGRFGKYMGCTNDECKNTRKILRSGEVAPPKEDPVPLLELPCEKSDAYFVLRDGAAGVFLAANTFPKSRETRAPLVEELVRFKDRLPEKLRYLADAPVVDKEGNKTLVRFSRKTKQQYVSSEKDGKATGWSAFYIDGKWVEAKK

Cytochrome P450 2C19, sequence (P33261 whole entry): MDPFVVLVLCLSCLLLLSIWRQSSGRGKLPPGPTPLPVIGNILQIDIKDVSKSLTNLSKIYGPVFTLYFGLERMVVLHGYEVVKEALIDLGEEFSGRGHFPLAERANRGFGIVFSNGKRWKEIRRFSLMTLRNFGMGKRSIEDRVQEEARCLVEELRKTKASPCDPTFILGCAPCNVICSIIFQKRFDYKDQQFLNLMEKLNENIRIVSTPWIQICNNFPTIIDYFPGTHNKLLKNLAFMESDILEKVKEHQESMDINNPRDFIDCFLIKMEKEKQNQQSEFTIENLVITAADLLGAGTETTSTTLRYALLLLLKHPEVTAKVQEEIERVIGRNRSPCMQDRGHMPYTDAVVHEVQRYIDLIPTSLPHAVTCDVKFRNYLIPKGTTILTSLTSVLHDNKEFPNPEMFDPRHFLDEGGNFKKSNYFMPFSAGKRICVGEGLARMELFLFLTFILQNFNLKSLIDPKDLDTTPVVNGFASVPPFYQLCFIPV
Beta-2 adrenergic receptor, sequence (P07550 whole entry): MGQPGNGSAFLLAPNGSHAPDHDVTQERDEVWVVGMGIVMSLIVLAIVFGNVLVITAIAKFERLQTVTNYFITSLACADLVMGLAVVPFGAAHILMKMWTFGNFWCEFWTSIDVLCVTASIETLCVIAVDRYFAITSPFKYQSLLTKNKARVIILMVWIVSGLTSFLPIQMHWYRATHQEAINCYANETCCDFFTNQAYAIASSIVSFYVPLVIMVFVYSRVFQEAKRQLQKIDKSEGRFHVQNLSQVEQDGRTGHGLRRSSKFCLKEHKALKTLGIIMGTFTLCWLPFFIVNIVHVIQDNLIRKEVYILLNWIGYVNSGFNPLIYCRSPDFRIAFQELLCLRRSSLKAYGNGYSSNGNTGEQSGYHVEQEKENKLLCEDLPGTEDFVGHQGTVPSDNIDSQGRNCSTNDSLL
Potassium voltage-gated channel subfamily KQT member 2/member 3, sequence (O88943 whole entry): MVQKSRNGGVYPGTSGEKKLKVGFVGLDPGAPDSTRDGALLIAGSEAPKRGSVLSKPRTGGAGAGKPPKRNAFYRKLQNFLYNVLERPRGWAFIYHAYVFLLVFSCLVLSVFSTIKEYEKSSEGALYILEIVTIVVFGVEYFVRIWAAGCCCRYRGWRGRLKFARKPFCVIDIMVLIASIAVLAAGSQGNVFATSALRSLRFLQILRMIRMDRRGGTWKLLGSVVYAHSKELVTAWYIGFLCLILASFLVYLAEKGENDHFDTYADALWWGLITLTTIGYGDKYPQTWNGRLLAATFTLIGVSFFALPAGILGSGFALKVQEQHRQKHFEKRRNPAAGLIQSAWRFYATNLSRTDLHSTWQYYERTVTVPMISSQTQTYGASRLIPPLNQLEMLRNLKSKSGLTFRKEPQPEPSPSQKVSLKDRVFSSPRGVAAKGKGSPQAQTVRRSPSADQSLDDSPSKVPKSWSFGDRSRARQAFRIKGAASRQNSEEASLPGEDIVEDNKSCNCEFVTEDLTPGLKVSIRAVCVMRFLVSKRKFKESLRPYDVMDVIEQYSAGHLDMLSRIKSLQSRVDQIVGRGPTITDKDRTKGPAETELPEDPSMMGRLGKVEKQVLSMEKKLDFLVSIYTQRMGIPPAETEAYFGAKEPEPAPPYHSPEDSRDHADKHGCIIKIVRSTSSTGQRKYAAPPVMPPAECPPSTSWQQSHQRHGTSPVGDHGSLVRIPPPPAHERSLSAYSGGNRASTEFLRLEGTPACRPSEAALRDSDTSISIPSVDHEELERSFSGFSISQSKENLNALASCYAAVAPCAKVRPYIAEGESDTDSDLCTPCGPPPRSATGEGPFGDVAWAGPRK
Potassium voltage-gated channel subfamily KQT member 2/member 3, sequence (O88944 whole entry): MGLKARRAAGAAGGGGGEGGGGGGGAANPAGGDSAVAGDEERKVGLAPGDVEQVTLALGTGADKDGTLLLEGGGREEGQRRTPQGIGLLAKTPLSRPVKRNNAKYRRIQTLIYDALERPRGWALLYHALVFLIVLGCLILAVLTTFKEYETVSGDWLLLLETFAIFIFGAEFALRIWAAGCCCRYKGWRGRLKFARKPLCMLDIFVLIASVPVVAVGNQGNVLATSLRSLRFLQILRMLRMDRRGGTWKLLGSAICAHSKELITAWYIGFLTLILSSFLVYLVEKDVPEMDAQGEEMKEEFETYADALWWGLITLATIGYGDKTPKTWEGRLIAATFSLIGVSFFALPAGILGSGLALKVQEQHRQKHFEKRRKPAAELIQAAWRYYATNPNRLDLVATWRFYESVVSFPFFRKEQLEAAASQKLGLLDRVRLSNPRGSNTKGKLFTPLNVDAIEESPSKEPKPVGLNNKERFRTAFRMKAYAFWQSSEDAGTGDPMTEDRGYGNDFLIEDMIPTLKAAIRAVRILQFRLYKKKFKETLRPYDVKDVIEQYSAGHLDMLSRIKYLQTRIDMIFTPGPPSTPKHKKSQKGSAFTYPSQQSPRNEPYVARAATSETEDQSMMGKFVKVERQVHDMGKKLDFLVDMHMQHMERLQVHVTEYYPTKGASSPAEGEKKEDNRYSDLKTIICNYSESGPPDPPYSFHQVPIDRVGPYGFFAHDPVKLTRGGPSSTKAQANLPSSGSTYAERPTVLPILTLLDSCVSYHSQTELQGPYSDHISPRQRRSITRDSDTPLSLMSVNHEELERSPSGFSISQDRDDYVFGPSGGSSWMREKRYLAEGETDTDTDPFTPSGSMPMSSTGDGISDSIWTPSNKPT
Potassium voltage-gated channel subfamily KQT member 2, sequence (O88943 whole entry): as the sequence (O88943 whole entry) above
Potassium voltage-gated channel subfamily KQT member 4, sequence (P56696 whole entry): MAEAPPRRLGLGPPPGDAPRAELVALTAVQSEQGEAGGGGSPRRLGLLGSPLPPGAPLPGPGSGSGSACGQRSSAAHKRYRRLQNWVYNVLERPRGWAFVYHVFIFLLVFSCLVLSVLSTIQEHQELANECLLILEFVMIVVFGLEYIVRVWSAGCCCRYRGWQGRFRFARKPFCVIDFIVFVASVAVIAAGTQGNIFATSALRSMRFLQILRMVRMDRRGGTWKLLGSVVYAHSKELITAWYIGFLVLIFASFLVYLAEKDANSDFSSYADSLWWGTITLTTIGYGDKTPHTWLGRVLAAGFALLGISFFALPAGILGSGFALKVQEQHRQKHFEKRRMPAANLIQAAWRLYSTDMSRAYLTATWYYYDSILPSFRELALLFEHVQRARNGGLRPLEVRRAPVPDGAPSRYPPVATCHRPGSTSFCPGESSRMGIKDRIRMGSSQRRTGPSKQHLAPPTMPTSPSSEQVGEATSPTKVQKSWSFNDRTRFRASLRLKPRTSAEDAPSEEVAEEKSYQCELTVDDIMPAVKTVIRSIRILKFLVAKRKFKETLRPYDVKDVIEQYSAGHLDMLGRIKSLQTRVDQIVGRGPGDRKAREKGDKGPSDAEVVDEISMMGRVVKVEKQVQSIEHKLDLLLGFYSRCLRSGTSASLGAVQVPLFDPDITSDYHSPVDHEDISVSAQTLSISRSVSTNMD
Cytochrome P450 2C9, sequence (P11712 whole entry): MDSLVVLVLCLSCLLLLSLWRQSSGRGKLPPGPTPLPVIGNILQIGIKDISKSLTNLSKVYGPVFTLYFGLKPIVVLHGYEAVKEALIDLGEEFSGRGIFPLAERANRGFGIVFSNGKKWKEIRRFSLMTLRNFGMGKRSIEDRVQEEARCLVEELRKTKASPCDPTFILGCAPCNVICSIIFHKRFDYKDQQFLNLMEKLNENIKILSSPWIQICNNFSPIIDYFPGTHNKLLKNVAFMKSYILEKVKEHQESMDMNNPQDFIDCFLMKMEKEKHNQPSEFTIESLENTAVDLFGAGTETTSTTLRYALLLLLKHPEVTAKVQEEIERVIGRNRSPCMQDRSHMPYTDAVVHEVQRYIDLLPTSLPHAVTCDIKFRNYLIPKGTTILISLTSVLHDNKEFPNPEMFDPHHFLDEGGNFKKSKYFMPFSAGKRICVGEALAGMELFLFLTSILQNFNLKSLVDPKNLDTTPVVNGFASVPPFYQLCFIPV

Q: For `CCOc1cc(CNCCc2ccc(S(N)(=O)=O)cc2)ccc1OCc1ccc(Cl)cc1`, which EC50 [1] is on record?
A: Its EC50 is 59.1 µM (active).

Q: What about the AC50 [2] of the same molecule?
A: The AC50 was 4.75 µM (active).

Q: What about the AC50 (INS1) of the same molecule?
A: The AC50 was 4.78 µM (active).

Q: What about the EC50 [3] of the same molecule?
A: Its EC50 is 9.07 µM (active).

Q: And the AC50 (Cytochrome P450 2C9)?
A: Its AC50 is 11.2 µM (inconclusive).

Q: And the EC50 [4]?
A: Its EC50 is 3.56 µM (active).

Q: And the EC50 [5]?
A: The EC50 was > 120 µM (not active).

Q: What about the EC50 [6] of the same molecule?
A: Its EC50 is 16.1 µM (inactive).

Q: What about the AC50 [7] of the same molecule?
A: The AC50 was 3.87 µM (active).

Q: What about the AC50 [8] of the same molecule?
A: The AC50 was 9.14 µM (active).

Q: What about the EC50 [9] of the same molecule?
A: Its EC50 is 8.2 µM (active).

Q: And the IC50 [10]?
A: Its IC50 is > 20 µM (inactive).

Q: What about the AC50 (Cytochrome P450 2C19) of the same molecule?
A: The AC50 was 17.8 µM (inconclusive).

Q: What does the source list for `Cc1cccc(C)c1NC(=O)C1CC2CCC1C2` (stereo unspecified)?
A: EC50 [11]: 3.24 µM (active); EC50 [12]: 13.4 µM (active); EC50 [13]: 4.66 µM (active)

Q: Which IC50 (HEK293 [14]) does the source give for `Cc1cc(NC(=O)c2ccc3c(c2)OCCO3)ccc1NC(=O)c1cc2ccccc2o1` here?
A: Its IC50 is 8.04 µM (active).

Q: What about the EC50 [15] of the same molecule?
A: Its EC50 is 14 µM (active).

Q: What about the CC50 [16] of the same molecule?
A: Its CC50 is > 40 µM (active).

Q: And the IC50 (Jurkat)?
A: The IC50 was 38.6 µM (inactive).

Q: And the EC50 (Streptococcus)?
A: The EC50 was 14.9 µM (active).

Q: What about the EC50 (Streptokinase A) of the same molecule?
A: Its EC50 is > 150 µM (not active).

Q: What about the CC50 [17] of the same molecule?
A: Its CC50 is 18.2 µM (active).

Q: What about the IC50 (cells) of the same molecule?
A: Its IC50 is 7.55 µM (active).

Q: And the IC50 (HEK293 [18])?
A: Its IC50 is 8.84 µM (active).

Q: With `CC(=O)c1cccc(NC(=O)CCc2nnc3ccc(NCc4ccc5c(c4)OCO5)nn23)c1` as the molecule, how does the AC50 (DNA topoisomerase) read?
A: The AC50 was 7.46 µM (active).
